Consider five compounds from patent US10450260B2, “NO- and H2S-releasing compounds” (RESEARCH FOUNDATION OF THE CITY UNIVERSITY OF NEW YORK, priority 2011, dated 2019).

Test [1] relates to MDA-MB 231 human breast cancer. As to the kind of experiment: MTT cell growth inhibition, MDA MB231. The format is cell-based. The conditions noted are these: for IC50: Homo sapiens, MDA-MB-231; for Ratio NSAID/NOSH-NSAID, MDA MB231: fold-enhancement in potency over the parent compound. The procedure: (§1) HT-29, SW-480 and HCT-15 human colon adenocarcinoma, MIA PaCa-2 and BxPC-3 human pancreatic cancer, LNCAP human prostate cancer, A549 human lung cancer, MCF-7 (estrogen receptor positive), MDA-MB 231 and SK-BR-3 (estrogen receptor negative) human breast cancer, and Jurkats human leukemia cell lines were obtained from American Type Tissue Collection (Manassas, Va.). All cells lines were grown as monolayers except for the Jurkats which were grown in suspension. The pancreatic and breast cancer cells were grown in Dulbecco's modified Eagle's medium, the prostate, Jurkat, SW-480 and HCT-15 colon cells were grown in RPMI 1640 medium, the lung cells were grown in F-12 and the colon HT-29 cells were grown in McCoy 5A. All media were supplemented with 10% fetal calf serum (Invitrogen, Carlsbad, Calif.) penicillin (50 U/ml), and streptomycin (50 μg/ml) (Invitrogen, Carlsbad, Calif.). Cells were seeded on culture dishes at a density of 25×10^3 cells/cm^2 and incubated at 37° C. in 5% CO2 and 90% relative humidity. Single cell suspensions were obtained by trypsinization (0.05% trypsin/EDTA), and cells were counted using a hemocytometer. Viability was determined by the trypan blue dye exclusion method.
(§2) Cell growth inhibitory effect of NOSH compounds were measured using a colorimetric MTT assay kit (Roche, Indianapolis, Ind.). Cancer cells were plated in 96-well plates at a density of 50,000 cells/well. The cells were incubated for 24 h with different concentrations of NOSH compounds. After the indicated time, 10 μl of MTT dye (3-[4,5-dimethylthiazol-2-yl]-2,5-diphenyl tetrazolium bromide, 5 mg/ml in phosphate buffered saline), was added to each well, and the plates were incubated for 2 hours at 37° C. Then, the media was aspirated, and add 100 μl of the solubilization solution (10% SDS in 0.01 M HCl) was added to each well to solubilize the formant crystals. The absorbance of the plates was measured on an ELISA reader at a wavelength of 570 nm. Each sample was performed in triplicate, and the entire experiment was repeated three times.
(§3) HT-29, SW-480 and HCT-15 human colon adenocarcinoma, MIA PaCa-2 and BxPC-3 human pancreatic cancer, LNCAP human prostate cancer, A549 and H383 human lung cancer, MCF-7, MDA-MB 231 and SK-BR-3 human breast cancer and Jurkat T cell human leukemia cell lines were obtained from American Type Tissue Collection (Manassas, Va.) All cells lines were grown as monolayers except for the Jurkat T cells which were grown as suspension culture. The pancreatic and breast cancer cells were grown in Dulbecco's modified Eagle's medium, the prostate, Jurkat, SW-480 and HCT-15 colon cells were grown in RPMI 1640 medium, the lung cells were grown in F-12 and the colon HT-29 cells were grown in McCoy 5A. All media were supplemented with 10% fetal calf serum (Invitrogen, Carlsbad, Calif.) penicillin (50 U/ml), and streptomycin (50 μg/ml) (Invitrogen, Carlsbad, Calif.). Cells were seeded on culture dishes at a density of 25×10^3 cells/cm^2 and incubated at 37° C. in 5% CO2 and 90% relative humidity. Single cell suspensions were obtained by trypsinization (0.05% trypsin/EDTA), and cells were counted using a hemacytometer. The final DMSO concentration was adjusted in all media to 1%. Viability was determined by the trypan blue dye exclusion method.
(§4) Cell growth inhibitory effect of all NOSH-NSAIDs was measured using a colorimetric MTT assay kit (Roche, Indianapolis, Ind.). Cancer cells were plated in 96-well plates at a density of 30,000-50,000 cells/well depending on cell type. The cells were incubated for 24 hours with different concentrations of NOSH-NSAIDs. After the indicated time, 10 μL of MTT dye (3-[4,5-dimethylthiazol-2-yl]-2,5-diphenyl tetrazolium bromide, 5 mg/mL in phosphate buffered saline), was added to each well, and the plates were incubated for 2 hours at 37° C. Then, the media was aspirated, and 100 μL of the solubilization solution (10% SDS in 0.01 M HCl) was added to each well to solubilize the formant crystals. […]

Test [2] relates to MCF-7 human breast cancer. Kind of test: MTT cell growth inhibition, MCF7. The format is cell-based. The conditions noted are these: for IC50: Homo sapiens, MCF7; for Ratio NSAID/NOSH-NSAID, MCF7: fold-enhancement in potency over the parent compound. As to the method: as §1, §2, §3, §4
In test [3] the test system is MIA PaCa-2 human pancreatic cancer. Kind of test: MTT cell growth inhibition, MIA PaCa2. The format is cell-based. Conditions: for IC50: Homo sapiens, MIA PaCa-2; for Ratio NSAID/NOSH-NSAID, MIAPaCa2: fold-enhancement in potency over the parent compound. As to the method:
as §1, §2, §3, §4

In test [4] the test system is BxPC-3 human pancreatic cancer. Kind of test: MTT cell growth inhibition, BxPC3. The conditions noted are these: for IC50: Homo sapiens, BXPC-3, read-out: IC50 for cell growth inhibition, Pancreas BxPC3; for Ratio NSAID/NOSH-NSAID, BxPC3: fold-enhancement in potency over the parent compound. The format is cell-based. As to the method:
as §1, §2, §3, §4

The subject of a further test is A549 human lung cancer. As to the kind of experiment: MTT cell growth inhibition, A549. The format is cell-based. Conditions: for IC50: Homo sapiens, A549; for Ratio NSAID/NOSH-NSAID, A549: fold-enhancement in potency over the parent compound. The procedure:
as §1, §2, §3, §4

The test system of test [5] is LNCAP human prostate cancer. As to the kind of experiment: MTT cell growth inhibition, LNCAP. The format is cell-based. Conditions: for IC50: Homo sapiens, LNCaP; for Ratio NSAID/NOSH-NSAID, LNCAP: fold-enhancement in potency over the parent compound. The procedure:
as §1, §2, §3, §4

Another test concerns TNF-α. Kind of test: Plasma TNF-α enzyme immunoassay. The format is in vivo, rat. Conditions: for plasma TNF-α (FIG. 3): P<0.01 vs vehicle, P<0.01 vs ASA; for plasma TNFα concentration: rats, equimolar oral doses: ASA 180 (1 mmol/kg), NOSH-ASA 477, naproxen 80, NOSH-naproxen 188, sulindac 200, NOSH-sulindac 467 mg/kg, control 11±0.3. The procedure: Fresh samples of blood from the animals were taken by cardiac puncture into heparin-containing vials. The determination of plasma TNF-α was carried out by an enzyme immunoassay kit from R&D systems (Minneapolis, Minn.). Briefly, each sample (50 μL) was incubated with antibodies specific for rat TNF-α and washed three times with assay buffer. An enzyme-linked polyclonal antibody specific for rat TNF-α conjugated to horseradish peroxidase was then added to the wells. Following washing of unbound antibody-enzyme reagent, a substrate solution (containing tetramethylbenzidine, TMB, plus hydrogen peroxide) was added to the wells. The enzyme reaction yielded a blue product (oxidized TMB) that turned yellow when the stop solution (dilute hydrochloride acid) was added. The intensity of the color was determined by measuring the OD of the yellow color in a standard ELISA plate reader at 450 nm. Sensitivity of this TNF-α assay was determined by adding two standard deviations to the mean optical density value of 20× zero standard replicates and calculating the corresponding concentration. The kit contains all reagents and standards needed for the TNF-α sensitivity assay. The results are expressed as pg/mL.
This was done by an enzyme immunoassay kit from R&D systems (Minneapolis, Minn.) following the protocol described by the manufacturer. Briefly, fresh blood (50 μL) was incubated with antibodies specific for rat TNF-α and washed three times with assay buffer. An enzyme-linked polyclonal antibody specific for rat TNF-α conjugated to horseradish peroxidase was then added to the wells. Following washing of unbound antibody-enzyme reagent, a substrate solution (containing tetramethylbenzidine, TMB, plus hydrogen peroxide) was added to the wells. The enzyme reaction yielded a blue product (oxidized TMB) that turned yellow when the stop solution (dilute hydrochloride acid) was added. The intensity of this was measured at 450 nm. Sensitivity of this TNF-α assay was determined by adding two standard deviations to the mean optical density value of 20× zero standard replicates and calculating the corresponding concentration.

[6] abbreviates: 24 hours, read-out: IC50 for cell growth inhibition, Pancreas MIA PaCa2.
Setting [7] is: 24 hours, read-out: IC50 for cell growth inhibition, Lung A540.
[8] abbreviates: 24 hours (Table 7), read-out: IC50 for cell growth inhibition, Pancreas MIAPaCa2.
Setting [9] is: 24 hours (Table 7), read-out: IC50 for cell growth inhibition, Lung A549.

Where two headings read alike, the source gives them in different places.

Consider `O=C(CCCO[N+](=O)[O-])Oc1ccccc1C(=O)Oc1ccc(-c2cc(=S)ss2)cc1` [NOSH-1, 4-(3-thioxo-3H-1,2-dithiol-5-yl)phenyl 2-((4-(nitrooxy)butanoyl)oxy)benzoate], for which the IC50 in test [1] (24 hours) was 100 ± 11 nM; in test [2] (24 hours), 280 ± 16 nM; in test [3] (setting [6]), 47 ± 5 nM; in test [4] (24 hours), 57 ± 4 nM; in the test on A549 human lung cancer (setting [7]), 50 ± 7 nM; in test [5] (24 hours) it was 88 ± 8 nM. For the same compound, the “plasma TNF-α concentration” value came to 55 ± 2 pg/mL in the test with TNF-α (NOSH-1 0.21 mmol/kg) and 40 ± 3 pg/mL in the test with TNF-α (NOSH-1 0.52 mmol/kg). The “plasma TNF-α (FIG. 3)” value with TNF-α is reported as “significantly less”. In the test on TNF-α, the “plasma TNFα concentration” value is 75 ± 1 pg/mL.
On to `CC(=O)Oc1ccccc1C(=O)O` [ASA, aspirin, reference compound], for which, in the test on TNF-α (ASA 0.56 mmol/kg), the “increase of plasma TNF-α concentration over control” value was “about 20 fold”. Further, the “plasma TNF-α concentration” value in the test on TNF-α (ASA 0.56 mmol/kg, control 10±1) was found to be 200 ± 10 pg/mL. Besides, the “increase of plasma TNFα concentration over control” value in the test on TNF-α (ASA 1 mmol/kg) is recorded as “about 20 fold”. In the test on TNF-α, the “plasma TNF-α (FIG. 3)” value is “significant rise” and the “plasma TNFα concentration” value is 190 ± 5 pg/mL.
In the case of `CC1=C(CC(=O)Oc2ccc(OC(=O)CCCO[N+](=O)[O-])c(C(=O)Oc3ccc(-c4cc(=S)ss4)cc3)c2)c2cc(F)ccc2/C1=C/c1ccc([S+](C)[O-])cc1` (centres unmarked) [NOSH-8, (E)-4-(3-thioxo-3H-1,2-dithiol-5-yl)phenyl 5-(2-(5-fluoro-2-methyl-1-(4-(methylsulfinyl)benzylidene)-1H-inden-3-yl)acetoxy)-2-((4-(nitrooxy)butanoyl)oxy)benzoate], the IC50 stood at 98 nM in test [1] (24 hours (Table 7)); 110 nM in test [2] (24 hours (Table 7)); 98 nM in test [3] (setting [8]); 110 nM in test [4] (24 hours (Table 7)); 180 nM with A549 human lung cancer (setting [9]); 90 nM in test [5] (24 hours (Table 7)). Besides, the “Ratio NSAID/NOSH-NSAID, MDA MB231” value in test [1] is reported as 9,540. Also, the “Ratio NSAID/NOSH-NSAID, MCF7” value in test [2] was 8,772. In addition, the “Ratio NSAID/NOSH-NSAID, MIAPaCa2” value in test [3] is recorded as 8,081. Besides, the “Ratio NSAID/NOSH-NSAID, BxPC3” value in test [4] was 8,818. The “Ratio NSAID/NOSH-NSAID, A549” value with A549 human lung cancer is 1,177. In addition, the “Ratio NSAID/NOSH-NSAID, LNCAP” value in test [5] is listed as 9,000. Besides, in the test with TNF-α, the “plasma TNFα concentration” value came to 50 ± 3 pg/mL.
Turning to `CC(C(=O)Oc1ccc(-c2cc(=S)ss2)cc1)c1ccc2cc(OC(=O)CCCO[N+](=O)[O-])ccc2c1` (centres unmarked) [NOSH-7, 6-(1-oxo-1-(4-(3-thioxo-3H-1,2-dithiol-5-yl)phenoxy)propan-2-yl)naphthalen-2-yl 4-(nitrooxy)butanoate], the IC50 was 110 nM in test [1] (24 hours (Table 7)); 110 nM in test [2] (24 hours (Table 7)); 95 nM in test [3] (setting [8]); 80 nM in test [4] (24 hours (Table 7)); 100 nM in the test on A549 human lung cancer (setting [9]); 130 nM in test [5] (24 hours (Table 7)). In test [1], the “Ratio NSAID/NOSH-NSAID, MDA MB231” value is listed as 26,363. Moreover, the “Ratio NSAID/NOSH-NSAID, MCF7” value in test [2] is given as 21,363. Besides, in test [3], the “Ratio NSAID/NOSH-NSAID, MIAPaCa2” value is 33,684. In test [4], the “Ratio NSAID/NOSH-NSAID, BxPC3” value was 30,625. For the same compound, the “Ratio NSAID/NOSH-NSAID, A549” value with A549 human lung cancer is reported as 26,500. The “Ratio NSAID/NOSH-NSAID, LNCAP” value in test [5] is 23,000. Also, the “plasma TNFα concentration” value in the test with TNF-α was found to be 48 ± 2 pg/mL.
As for `NC(=S)c1ccc(OC(=O)c2ccccc2OC(=O)CCCO[N+](=O)[O-])cc1` [NOSH-3, 4-carbamothioylphenyl 2-((4-(nitrooxy)butanoyl)-oxy)benzoate], the IC50 in test [1] (24 hours) was determined as 6000 ± 220 nM; in test [2] (24 hours) it was 5700 ± 323 nM; in test [3] (setting [6]), 4800 ± 322 nM; in test [4] (24 hours), 5500 ± 390 nM; with A549 human lung cancer (setting [7]), 6500 ± 224 nM; in test [5] (24 hours) it was 4300 ± 212 nM.
